In patent publication US20240173241A1, “Multistable Photochromic Pigments For Intradermal Use” (THE REGENTS OF THE UNIVERSITY OF COLORADO, a body corporate, priority 2021, published 2024):

Assay: UV activation of P-type photochromic dye in PMMA matrix in natural sunlight (ΔE*ab vs. time)
Assay type: physicochemical
Description: FIG. 5 is a set of six graphs (A-F) comparing measured and modeled data for the UV activation of P-type photochromic dyes with and without UV and color filters. The UV-activated color change is quantified by ΔE*ab in CIELAB chromaticity space for measured data, while it is expressed in terms of the relative concentration. [C], of the photoactivated species in the modeled data. (A) ΔE*ab vs. time for a P-type photochromic dye (1,2-Bis(2-methyl-5-phenyl-3-thienyl)-perfluorocyclopentenediarylethene, DAE-0001) embedded in a PMMA matrix in natural sunlight in Boulder, Colorado. The time to 85% complete activation, […], is 67 s. (B) ΔE*ab vs. time for DAE-0001 with 50% UV filter ([…] =142 s). […]
where [C] is the concentration of the photoactivated species (photostationary state), [S] is the concentration of the ground-state species, εS,λ is the molar absorptivity of the ground-state species at wavelength λ, εC,λ is the molar absorptivity of the photoactivated species at wavelength λ, φs is the quantum yield of the cycloreversion or deactivation, φC is the quantum yield of photoactivation, Iλ is the irradiance at wavelength λ, and l is the path length. […] The simulations agree well with measured data of its UV activation in natural sunlight in Boulder, Colorado, as shown in FIG. 5A and FIG. 5B. […]

In the case of `Cc1sc(-c2ccccc2)cc1C1=C(c2cc(-c3ccccc3)sc2C)C(F)(F)C(F)(F)C1(F)F` [DAE-0001, 1,2-Bis(2-methyl-5-phenyl-3-thienyl)-perfluorocyclopentenediarylethene], the “time to 85% complete activation” value (embedded in a PMMA matrix, natural sunlight in Boulder, Colorado, no filter (FIG. 5A)) is reported as 67 s and the “time to 85% complete activation” value (natural sunlight, with 50% UV filter (FIG. 5B)) is reported as 142 s.
